Test results reported in PMC8466373, “Plant-Derived and Dietary Hydroxybenzoic Acids—A Comprehensive Study of Structural, Anti-/Pro-Oxidant, Lipophilic, Antimicrobial, and Cytotoxic Activity in MDA-MB-231 and MCF-7 Cell Lines” (Nutrients, 2021).
In brackets after ≈: the same amount, converted by molar mass. Read-outs that look alike come from different tables or passages of the source.

How the values were obtained:
[1] = Lipophilicity via RP-HPLC; type: physicochemical
Experimental: The analyses were carried out on the following chromatographic columns: RP-18e Purospher STAR (C18), 150 mm × 4.0 mm, 5 µm, (Merck, Darmstadt, Germany); RP-8e Purospher STAR (C8), 150 mm × 4.6 mm, 5 µm, (Merck, Darmstadt, Germany); Zorbax Eclipse XDB-CN (CN), 150 mm × 4.6 mm, 5 µm, (Agilent Technologies, Santa Clara, CA, USA); Nucleosil Phenyl (PHE), 250 mm × 4.6 mm, 7 µm, (Supelco, Bellefonte, PA, USA); and Regis Rexchrom IAM.PC.DD.2 (IAM), 100 mm × 4.6 mm, 10 µm, (Regis Technologies Inc., Morton Grave, IL, USA). The experimental conditions and the calculations were as described in [46].

[2] = CABTS = 7 mM, cited from earlier work; for IC50: t = 6 min, read-out: ABTS, IC50; for inhibition: C = 10 μM, t = 7 min, read-out: ABTS radical scavenging activity (%)
[3] = tested on: monocytes treated with hydrogen peroxide; conditions: 200 μM; cited from earlier work
Chrysosporium species = conditions: concentration of 30 mg/mL; cited from earlier work
A. fumigatus = conditions: concentration of 30 mg/mL; cited from earlier work
[4] = tested on: E. coli, P. aeruginosa, S. aureus, B. subtilis, S. enteritidis, and C. albicans; experiment: MIC, stated for all tested strains together; type: cell-based; conditions: all of the tested strains
Experimental: The following bacterial strains were used in this study: Escherichia coli (PCM 2857), Pseudomonas aeruginosa (PCM 2720), Bacillus subtilis (PCM 2850), Staphylococcus aureus (PCM 2267), Salmonella enteritidis (NCTC 4776), and Candida albicans (PCM 2566-FY). The microbial strains were bought from the Polish Collection of Microorganisms (Wroclaw, Poland) or the American Type Culture Collection. Bacteria (0.1 mL of the reconstituted suspension) were seeded onto sterile Mueller–Hinton agar plates (Biomaxima), to which previously suitable amounts of the tested compounds were added to give the desired concentration.
The MIC (minimal inhibitory concentration) was determined by serial dilution of the tested compound in an agar medium, to which the appropriate inoculum of microorganisms was then added and incubated. Escherichia coli, Pseudomonas aeruginosa, Staphylococcus aureus, Bacillus subtilis, Salmonella enteritidis, and Candida albicans were grown overnight and then resuspended in physiological saline to an optical density at 600 nm (OD = 600) of 0.60, corresponding to 5.0 × 10^8 CFU/mL. Bacteria (0.1 mL of the reconstituted suspension) were seeded onto sterile Mueller–Hinton agar plates, to which previously suitable amounts of the tested compounds were added to reach the desired concentration. Tested chemicals were dissolved in DMSO solution. Negative controls were agar plates, to which DMSO was added, while positive controls were plates with gentamycin (in the case of bacteria) or flucanozole (in the case of fungi). The plates were incubated at 37 °C for 24 h. The lowest concentration without visible bacterial growth was determined as the MIC.

MDA-MB-231 cells [5] = tested on: MDA-MB-231 cells; set-up: method as in PMID 31746356; conditions: incubated for 48 h; cited from earlier work
A. flavus = conditions: concentration of 30 mg/mL; cited from earlier work
[6] = cited from earlier work
[7] = CUPRAC assay (cupric-reducing antioxidant capacity); type: biochemical; conditions: concentration of 50 μM, methanolic solutions
Experimental: CUPRAC assay was carried out according to the method described in [44]. First, […] of CuCl2 (C = 10 mM; in water) was mixed with […] of ammonium acetate (pH 7; in water) and neocuproine (C = 75 mM; in ethanol). […] The samples were mixed and incubated for 60 min at room temperature (23 °C). The absorbance of the samples was measured with a UV–Vis spectrophotometer at λ = 450 nm against a blank (containing 0.5 mL of methanol instead of the sample). […] R^2 = 0.9919).

[8] = cited from earlier work; remark: listed apart in the source
[9] = tested on: Botrytis cinerea and Rhizopus stolonifer; conditions: concentration of 5 mM; cited from earlier work
[10] = tested on: E. coli, B. aureus, and L. monocytogenes; set-up: method as in doi:10.17221/132/2010-CJFS; conditions: ref 90; cited from earlier work
[11] = Pro-oxidant activity, Trolox oxidation assay; type: biochemical; conditions: after 120 min of incubation, concentrations of 35 μM
Experimental: The pro-oxidant activity was expressed as the rate of Trolox oxidation according to the protocol described in [45]. First, a mixture of 0.5 mL of Trolox (C = 0.4 mM; in water) with 0.5 mL of H2O2 (C = 0.2 mM; in water), 0.5 mL of HRP (C = 0.04 μM; in phosphate buffer; pH = 7), 5 μL of the tested compounds (C = 50 μM; in methanol), and […] of distilled water was prepared as the tested sample. […] The control contained methanol instead of the tested substance.

MDA-MB-231 cells [12] = tested on: MDA-MB-231 cells; set-up: method as in PMID 30211078; conditions: in 24 h; read-out: IC50, growth of MDA-MB-231 cells; cited from earlier work
MCF-7 = conditions: incubation time: 24 h, cited from earlier work
A2780 cancer cells = conditions: incubation time: two days; cited from earlier work
[13] = tested on: HepG2 hepatocellular carcinoma cells; conditions: 100 µM, incubation time: 4 days; cited from earlier work
[14] = tested on: S. aureus, B. cereus, M. flavus, P. aeruginosa, E. coli, and E. cloacae; conditions: all mentioned strains; cited from earlier work
[15] = C = 0,001 mg/mL, λ = 593 nm, t = 30 min

SMILES	log kw ([1]; C8 column)	ϕ0 ([1]; C8 column)	log kw ([1]; C18 column)	ϕ0 ([1]; C18 column)	log kw ([1]; CN column)	ϕ0 ([1]; CN column)	log kw ([1]; IAM column)	ϕ0 ([1]; IAM column)	log kw ([1]; PHE column)	ϕ0 ([1]; PHE column)	IC50 ([2]; ref 73) [µM]	MIC [4] [µg/mL]	concentration that inhibited colony formation (MDA-MB-231 cells [5])	pKaexp. ([6]; at 25 °C)	pKaexp. ([6]; ref 104)	pKaexp. ([6]; ref 105)	CUPRAC assay: Trolox equivalent [7] [µM]	IC50 ([2]; ref 68) [µM]	FRAP [8, 15]	degree of Trolox oxidation [11] [%]	also measured
O=C(O)c1cccc(O)c1O [2,3-DHB, 2,3-Dihydroxybenzoic acid]	1.70	0.87	2.47	0.60	1.59	1.16	2.17	1.08	1.25	0.93	10.7	5000 (≈ 32.4 mM)	~ 500 µM	2.91	2.98	2.56	60.83	–	–	–	cell survival [3]: 50%; zone of inhibition (Chrysosporium species): 25 mm; zone of inhibition (A. fumigatus): 30 mm; zone of inhibition (A. flavus): 24 mm
O=C(O)c1cc(O)ccc1O [2,5-DHB, 2,5-dihydroxybenzoic acid]	–	–	–	–	–	–	–	–	–	–	15.6	–	100 µM	–	–	–	68.77	~6.5	≈ 0.98 (C = 0,001 mg/mL), λ = 593 nm, t = 30 min) [73] μM Fe^2+	–	FRAP ([8]; C = 5 μM, λ = 594 nm, t = n.d.): 75.39 (C = 5 μM, λ = 594 nm, t = n.d.) [62] μM Fe^2+; FRAP ([8]; C = 50 μM, λ = 594 nm, t = n.d.): 236.86 (C = 50 μM, λ = 594 nm, t = n.d.) [62] μM Fe^2+; inhibition of spore germination and mycelial growth [9]: completely inhibited; MIC [10]: 2500 µM (≈ 385 µg/mL)
O=C(O)c1c(O)cccc1O [2,6-DHB, 2,6-dihydroxybenzoic acid]	1.17	1.05	2.99	0.68	1.49	1.08	1.31	1.14	0.87	1.05	–	–	–	–	1.30	1.51	–	–	–	9.52	–
O=C(O)c1cc(O)c(O)c(O)c1 [3,4,5-THB, 3,4,5-trihydroxybenzoic acid]	0.50	0.91	1.91	0.37	1.24	1.06	0.15	1.44	0.83	0.33	4.33	–	–	–	4.41	3.94	73.85	–	≈ 1.03 (C = 0,001 mg/mL), λ = 593 nm, t = 30 min) [73] μM Fe^2+	–	inhibition [2]: ~80%; IC50 (MDA-MB-231 cells [12]): ~150 µM; cell proliferation of MCF-7, % of control (MCF-7; 5 μg/mL): 42.73 % of control; concentration inhibiting 50% of MCF-7 cancer cells (MCF-7): 7.5 µg/mL; IC50, A2780 cancer cells (A2780 cancer cells): 45.25 µg/mL (≈ 0.266 mM); pKaexp. ([6]; ref 110): 4.40
O=C(O)c1ccc(O)c(O)c1 [3,4-DHB, 3,4-dihydroxybenzoic acid]	1.00	0.83	2.32	0.45	1.58	1.08	0.44	1.13	1.07	0.50	20.7	2000 (≈ 13 mM)	–	4.26	4.48	4.16	60.53	10.1	≈ 0.65 (C = 0,001 mg/mL), λ = 593 nm, t = 30 min) [73] μM Fe^2+	8.44	inhibition [2]: ~38%; HepG2 cells' viability [13]: 40%; MIC [14]: 3000 µg/mL (≈ 19.5 mM)
O=C(O)c1cc(O)cc(O)c1 [3,5-DHB, 3,5-dihydroxybenzoic acid]	0.90	0.83	2.56	0.45	1.78	1.07	0.51	1.16	1.03	0.55	41.9	–	–	–	4.04	3.61	–	–	≈ 0.03 (C = 0,001 mg/mL), λ = 593 nm, t = 30 min) [73] μM Fe^2+	8.03	pKaexp. ([6]; ref 108): 4.04
